# In PubChem BioAssay AID1918954 (Molecular Pharmacology Branch, DTP, NCI, 2023):
# “And” between values parts separate entries of the source, which are not always exact repeats. Identical values can stand only once.
# System: MDA-MB-468 complex spheroids with HUVEC/MSC, viability
# Assay: Anticancer human tumor MDA-MB-468 cell line growth inhibition;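 further: spheroids exposed to agents for seven days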;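 on viability, T/C: 100% = DMSO vehicle control viability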
# Settings: for viability, T/C: stronger effect = lower value
# Description: Multicellular complex tumor spheroid response to LSD1 Inhibitor Iadademstat in combination with a variety of drugs and investigational agents in selected tumor cell lines
# The current study was undertaken to assess response to LSD1 inhibitors in combination with standard-of-care drugs and investigational agents in solid tumor complex spheroid models as well as in the K-562 leukemia. Complex spheroids include a stromal component modeled by human endothelial cells (HUVEC) and fibroblasts modeled by human mesenchymal stem cells (MSCs). The concentration ranges selected for each drug and investigational agent were based upon clinically achievable concentrations if the clinical Cmax of the agent was known.
# Compounds. The drugs and investigational agents used in this study are listed on Table 1. All of the agents used, including staurosporine (NSC755774) and gemcitabine (NSC613327), were obtained from the Developmental Therapeutics Program, NCI. FDA-approved anticancer drugs are available from the NCI at http://dtp.nci.nih.gov/branches/dscb/oncology_drugset_explanation.html. Drugs and investigational agents were >95% pure by proton nuclear magnetic resonance (NMR) and liquid chromatography/mass spectrometry (LC/MS). Stock solutions were prepared at 400x in DMSO, stored at -70 degrees C, and diluted in fresh medium prior to their use. The final concentration of DMSO in cell culture wells never exceeded 0.25% (v/v). The FDA-approved anticancer drug set is available from the Developmental Therapeutics Program at https://dtp.cancer.gov/organization/dscb/obtaining/available_plates.htm. All drugs and investigational agents were tested over a range starting from a high concentration at or near the clinical Cmax and decreasing in half-log increments. If the clinical Cmax for an agent had not been determined, the highest concentration tested was 10 microM.
# Cell Lines. The patient-derived cancer cell (PDC) lines: 292921-168-R-J2-PDC, K24384-001-R-PDC, and 521955-158-R2-J5-PDC pancreatic carcinomas, 556581-035-R-J1 ovarian carcinoma, 324938-238-R-J1-PDC, 855422-203-R-J1-PDC and 883617-216-R-J1-PDC urothelial bladder carcinomas, 743489-274-T-PDC renal cell carcinoma, 138582-R-J1 Merkel cell tumor, K60290-347-R-J1 and K57222-313-R-J1-PDC glioblastomas, 653999-131-R-J2-PDC, LG0703-F948-PDC, and 349418-098-R-PDC non-small cell lung carcinomas, 885512-296-R-J2-PDC, 171881-019-R-J1-PDC breast carcinomas and 186277-243-T-J2-PDC and 233499-124-R-J2-PDC colon carcinomas were obtained from the NCI Patient-Derived Models Repository (PDMR, https://pdmr.cancer.gov). The established cell lines NCI/ADR-RES (RRID:CVCL_14520 and OVCAR-5 (RRID:CVCL_1628) ovarian carcinomas, 786-O (RRID:CVCL_1051) and A498 (RRID:CVCL_A498) renal cell carcinoma, NCI-H211 (ATCC, cat. CRL-5824; RRID:CVCL_1529), NCI-H196 (ATCC, cat. CRL-5823, RRID:CVCL_1509), SW 1271 (ATCC, cat. CRL-2177, RRID:CVCL_1716) and NCI-H1876 (ATCC, cat. CRL-5902, RRID:CVCL_1503) small cell lung carcinomas, MDA-MB-231 (RRID:CVCL_0062) and MDA-MB-468 (RRID:CVCL_0419)breast carcinomas (10-12). Pooled donor human umbilical vein endothelial cells (HUVEC, Lonza, cat. CC-2519) and human mesenchymal stem cells (hMSC, Lonza, cat. PT-2501) were purchased from Lonza (Walkersville, MD).
# Cell Culture. All cells were maintained in an incubator at 37 degrees C and 5% CO2 with 95% humidity. The PDC lines were cultured according to standard operating procedures established by the NCI PDMR (https://pdmr.cancer.gov). Briefly all PDCs were thawed and cultured in Matrigel-coated flasks prepared with a working solution of 1X Ham's F-12 nutrient mix, without supplementation (Invitrogen, Waltham, MA, cat. 11765054), 100 U/mL penicillin-streptomycin (Invitrogen, cat. 15140122), and 2.5% Matrigel (Corning Inc., Corning, NY, cat. 354248) for the first three passages. […]
# [1] = curve of first compound, second compound 0.1 µM
# [2] = curve of first compound, second compound 0.316 µM
# [3] = curve of first compound, second compound 1 µM
# [4] = curve of first compound, second compound 3.16 µM
# [5] = curve of first compound, second compound 10 µM
# [6] = second compound 0.1 µM, first compound 0.00949 µM
# [7] = second compound 0.1 µM, first compound 0.03 µM
# [8] = second compound 0.1 µM, first compound 0.0949 µM
# [9] = second compound 0.1 µM, first compound 0.3 µM
# [10] = second compound 0.316 µM, first compound 0.00949 µM
# [11] = second compound 0.316 µM, first compound 0.03 µM
# [12] = second compound 0.316 µM, first compound 0.0949 µM
# [13] = second compound 0.316 µM, first compound 0.3 µM
# [14] = second compound 1 µM, first compound 0.00949 µM
# [15] = second compound 1 µM, first compound 0.03 µM
# [16] = second compound 1 µM, first compound 0.0949 µM
# [17] = second compound 1 µM, first compound 0.3 µM
# [18] = second compound 3.16 µM, first compound 0.00949 µM
# [19] = second compound 3.16 µM, first compound 0.03 µM
# [20] = second compound 3.16 µM, first compound 0.0949 µM
# [21] = second compound 3.16 µM, first compound 0.3 µM
# [22] = second compound 10 µM, first compound 0.00949 µM
# [23] = second compound 10 µM, first compound 0.03 µM
# [24] = second compound 10 µM, first compound 0.0949 µM
# [25] = second compound 10 µM, first compound 0.3 µM
compound,measurement,setting,value
Nc1ccn(C2OC(CO)C(O)C2(F)F)c(=O)n1 (configuration not stated) + NC1CCC(NC2CC2c2ccccc2)CC1,IC50,[1],< 0.949 nM
same,IC50,[2],< 0.949 nM
same,IC50,[3],< 0.949 nM
same,IC50,[4],< 0.949 nM
same,IC50,[5],< 0.949 nM
same,"viability, T/C","second compound 0.1 µM, first compound 0.000949 µM",5.76%
same,"viability, T/C","second compound 0.1 µM, first compound 0.003 µM",4.85%
same,"viability, T/C",[6],5.57%
same,"viability, T/C",[7],4.54%
same,"viability, T/C",[8],4.56%
same,"viability, T/C",[9],5.13%
same,"viability, T/C","second compound 0.316 µM, first compound 0.000949 µM",5.33%
same,"viability, T/C","second compound 0.316 µM, first compound 0.003 µM",5.22%
same,"viability, T/C",[10],5.23%
same,"viability, T/C",[11],4.88%
same,"viability, T/C",[12],5.47%
same,"viability, T/C",[13],5.64%
same,"viability, T/C","second compound 1 µM, first compound 0.000949 µM",6.43%
same,"viability, T/C","second compound 1 µM, first compound 0.003 µM",6.38%
same,"viability, T/C",[14],5.41%
same,"viability, T/C",[15],4.34%
same,"viability, T/C",[16],4.71%
same,"viability, T/C",[17],5.55%
same,"viability, T/C","second compound 3.16 µM, first compound 0.000949 µM",6.65%
same,"viability, T/C","second compound 3.16 µM, first compound 0.003 µM",5.98%
same,"viability, T/C",[18],5.78%
same,"viability, T/C",[19],5.89%
same,"viability, T/C",[20],4.69%
same,"viability, T/C",[21],5.66%
same,"viability, T/C","second compound 10 µM, first compound 0.000949 µM",7.63%
same,"viability, T/C","second compound 10 µM, first compound 0.003 µM",6.29%
same,"viability, T/C",[22],6.52%
same,"viability, T/C",[23],7.12%
same,"viability, T/C",[24],5.35%
same,"viability, T/C",[25],5.45%
COc1cc(C2c3cc4c(cc3C(OC3OC5COC(C)OC5C(O)C3O)C3COC(=O)C23)OCO4)cc(OC)c1O (configuration not stated),"viability, T/C",compound 0.00949 µM,79% and 92.3%
same,"viability, T/C",compound 0.03 µM,76.9% and 70.8%
same,"viability, T/C",compound 0.0949 µM,48.1% and 27.1%
same,"viability, T/C",compound 0.3 µM,15.1% and 15%
same,"viability, T/C",compound 0.949 µM,14.4% and 10%
same,"viability, T/C",compound 3 µM,10.4% and 4.22%
same,IC50,curve of compound,87.8 nM and 52.4 nM
COc1ccc([C@@H](O)c2cc(-c3ncnc4cc(N5CCOCC5)ccc34)c(F)cc2Cl)nn1 + NC1CC1c1ccc(-c2cccc(O)c2)cc1,IC50,[1],878 nM
same,IC50,[2],876 nM
same,IC50,[3],720 nM
same,IC50,[4],701 nM
same,IC50,[5],228 nM
same,"viability, T/C","second compound 0.1 µM, first compound 0.0316 µM",113%
same,"viability, T/C","second compound 0.1 µM, first compound 0.1 µM",103%
same,"viability, T/C","second compound 0.1 µM, first compound 0.316 µM",69.1%
same,"viability, T/C","second compound 0.1 µM, first compound 1 µM",47.4%
same,"viability, T/C","second compound 0.1 µM, first compound 3.16 µM",26.1%
same,"viability, T/C","second compound 0.1 µM, first compound 10 µM",6.17%
same,"viability, T/C","second compound 0.316 µM, first compound 0.0316 µM",107%
same,"viability, T/C","second compound 0.316 µM, first compound 0.1 µM",82.3%
same,"viability, T/C","second compound 0.316 µM, first compound 0.316 µM",69.8%
same,"viability, T/C","second compound 0.316 µM, first compound 1 µM",52.8%
same,"viability, T/C","second compound 0.316 µM, first compound 3.16 µM",25.9%
same,"viability, T/C","second compound 0.316 µM, first compound 10 µM",5.99%
same,"viability, T/C","second compound 1 µM, first compound 0.0316 µM",109%
same,"viability, T/C","second compound 1 µM, first compound 0.1 µM",109%
same,"viability, T/C","second compound 1 µM, first compound 0.316 µM",71.9%
same,"viability, T/C","second compound 1 µM, first compound 1 µM",39.6%
same,"viability, T/C","second compound 1 µM, first compound 3.16 µM",21%
same,"viability, T/C","second compound 1 µM, first compound 10 µM",5.38%
same,"viability, T/C","second compound 3.16 µM, first compound 0.0316 µM",102%
same,"viability, T/C","second compound 3.16 µM, first compound 0.1 µM",87.8%
same,"viability, T/C","second compound 3.16 µM, first compound 0.316 µM",73.4%
same,"viability, T/C","second compound 3.16 µM, first compound 1 µM",37.2%
same,"viability, T/C","second compound 3.16 µM, first compound 3.16 µM",21.5%
same,"viability, T/C","second compound 3.16 µM, first compound 10 µM",4.59%
same,"viability, T/C","second compound 10 µM, first compound 0.0316 µM",69.2%
same,"viability, T/C","second compound 10 µM, first compound 0.1 µM",59.8%
same,"viability, T/C","second compound 10 µM, first compound 0.316 µM",45.1%
same,"viability, T/C","second compound 10 µM, first compound 1 µM",33.2%
same,"viability, T/C","second compound 10 µM, first compound 3.16 µM",20.1%
same,"viability, T/C","second compound 10 µM, first compound 10 µM",2.86%
O=C(C=Cc1cccc(S(=O)(=O)Nc2ccccc2)c1)NO + NC1CC1c1ccc(-c2cccc(O)c2)cc1,IC50,[1],59.9 nM
same,IC50,[2],44.2 nM
same,IC50,[3],53.3 nM
same,IC50,[4],49.8 nM
same,IC50,[5],26.2 nM
same,"viability, T/C",[6],88.7%
same,"viability, T/C",[7],74.8%
same,"viability, T/C",[8],25.8%
same,"viability, T/C",[9],2.15%
same,"viability, T/C","second compound 0.1 µM, first compound 0.949 µM",0.17%
same,"viability, T/C","second compound 0.1 µM, first compound 3 µM",106%
same,"viability, T/C",[10],96.3%
same,"viability, T/C",[11],59.3%
same,"viability, T/C",[12],23.1%
same,"viability, T/C",[13],2.07%
same,"viability, T/C","second compound 0.316 µM, first compound 0.949 µM",0.17%
same,"viability, T/C","second compound 0.316 µM, first compound 3 µM",101%
same,"viability, T/C",[14],92.9%
same,"viability, T/C",[15],70.3%
same,"viability, T/C",[16],25.5%
same,"viability, T/C",[17],2.36%
same,"viability, T/C","second compound 1 µM, first compound 0.949 µM",0.14%
same,"viability, T/C","second compound 1 µM, first compound 3 µM",90.9%
same,"viability, T/C",[18],83.1%
same,"viability, T/C",[19],64.5%
same,"viability, T/C",[20],23%
same,"viability, T/C",[21],2.23%
same,"viability, T/C","second compound 3.16 µM, first compound 0.949 µM",0.16%
same,"viability, T/C","second compound 3.16 µM, first compound 3 µM",101%
same,"viability, T/C",[22],67.7%
same,"viability, T/C",[23],47.7%
same,"viability, T/C",[24],17.7%
same,"viability, T/C",[25],1.86%
same,"viability, T/C","second compound 10 µM, first compound 0.949 µM",0.19%
same,"viability, T/C","second compound 10 µM, first compound 3 µM",79.1%
